Data from ChEMBL document CHEMBL5712901, “DOT1L inhibition blocks multiple myeloma cell proliferation by suppressing IRF4-MYC signaling” (2019).
Calls of active or inactive are those of the source. The calls are words filed in the database; no cut-off is given here.

Tested on: MM1.S
Assay: Upregulation of CAPG gene in human MM1.S cells at 1 uM for 6 days by
Assay type: functional, cell-based
Details: time 6.0 day

SMILES: CC(C)N(CCCNC(=O)Nc1ccc(C(C)(C)C)cc1)C[C@H]1O[C@@H](n2cc(Br)c3c(N)ncnc32)[C@H](O)[C@@H]1O
- Activity: Active
